Source: US5541187A, “6-heterocycyclyl pyrazolo[3,4-d]pyrimidin-4-ones and compositions and method of use thereof” (Sterling Winthrop Inc., priority 1993, dated 1996)
Several values for one entry are separate records, joined by “and”; a condition that tells them apart may be missing. Equal values may be shown once.

What was measured:
[1] = tested on: aortic rings (aortic smooth muscle strips); assay: Procedure 1: in vitro reversal of nitroglycerin tolerance, relaxation of aortic rings; format: cell-based, Male Sprague-Dawley rats; conditions: Rattus norvegicus, n=8, mean ±S.E.M.
Protocol: Male Sprague-Dawley rats (250-350 g body weight) were deeply anesthetized with pentobarbital (50 mg/kg) and then euthanized by exsanguination. The thoracic and abdominal cavities were immediately opened and the aorta was removed. In order to remove the influence of endogenous endothelial relaxing factor (EDRF), the entire length of the aorta was functionally denuded of the endothelial layer by gently scraping the luminal surface with a solid polyethylene catheter. The effectiveness of this procedure was tested in each preparation at the end of the experiment by measuring the vasorelaxant response to 1 μM carbachol, a stimulator of EDRF release. […] Maximal change in contractile tension over a series of nine consecutive 10 minute intervals was recorded and expressed as percent relaxation relative to post pre-treatment, phenylephrine-induced tension. Mean EC50 values were calculated from percent relaxation of individual tissues using a statistical program according to Tallarida and Murray, (Manual of Pharmacologic Calculations with Computer Programs, Springer-Verlag, N.Y. 1987) and are expressed as mean ±S.E.M.

[2] = tested on: Spontaneously hypertensive rats; assay: Procedure 2: in vivo reversal of nitroglycerin tolerance, mean arterial pressure; design: species or system rat (spontaneously hypertensive rats); conditions: for change in MAP in response to nitroglycerin injection: nitroglycerin 10 μg/kg i.v.
Protocol: Spontaneously hypertensive rats (16-19 weeks of age) were made nitroglycerin tolerant by injecting […] nitroglycerin s.c., 3-times/day for 3 days. While conscious and freely moving, the decrease in mean arterial pressure (MAP) in response to a challenge dose of nitroglycerin (10 μg/kg, i.v. bolus) was utilized to confirm tolerance.

[3] = tested on: Spontaneously hypertensive rats (SHR); assay: Antihypertensive activity in conscious spontaneously hypertensive rats (SHR), iv; format: in vivo; conditions: Rattus norvegicus, 5 min; for ED25: read-out: ED25 (mean arterial pressure); for change in vivo at 10 mg/kg / change in vivo at 3 mg/kg / change in vivo at 1 mg/kg: 5 minutes after dose, cumulative dosing, read-out: % change in mean arterial pressure
Protocol: After a 2 day recovery from surgery, three baseline blood pressure measurements were made at 5 min intervals in conscious SHR. Compounds to be tested or vehicle were then administered intravenously in a dose-dependent manner (0.3-10 mg base/kg) while arterial pressure was recorded continuously on a polygraph. The mean arterial pressure response was measured 5 minutes after the administration of each dose of the test compound and the next dose given in a cumulative dose fashion. The response to each dose of the test compound was calculated as the difference from the mean of the three baseline measurements.

[4] = tested on: cGMP-PDE I; assay: cGMP-PDE I inhibitory activity (cyclic nucleotide hydrolysis, isolated PDE isozyme); format: biochemical, various animal species and man; conditions: for IC50: values marked * are from two separate experimental runs
Protocol: Multiple isozymic forms of cyclic nucleotide phosphodiesterase (PDE) have been identified in mammalian cells. […] Elevation of intracellular cGMP in vascular smooth muscle triggers a cascade of events that leads to a reduction in muscle tone while elevations in renal tubule cell cGMP stimulates natriuresis and diuresis. Vascular smooth muscle and renal cells contain a phosphodiesterase isozyme that has a low Km (1 μM) for the hydrolysis of cGMP. This isozyme has been referred to as the cGMP-PDE or cGMP-PDE I since it elutes from an anion-exchange sepharose resin in the first peak of PDE activity at a sodium acetate concentration between 150-200 mM. Thus inhibition of the cGMP-PDE isozyme is a viable subcellular mechanism by which increases in cGMP can produce a reduction in total peripheral resistance and a stimulation of natriuresis and diuresis. The development of cGMP-PDE inhibitors represents an approach for the discovery of agents useful for treating heart failure and hypertension. For example, compounds having high inhibitory potency for the cGMP-PDE are expected to lower blood pressure and induce natriuresis and diuresis.
The cGMP-PDE and other PDE isozymes were isolated from cardiovascular tissues (heart and aorta) of various animal species and man by anion-exchange and affinity chromatography as described by Silver et al., Sec. Messeng. Phos. 13:13-25, 1991; PDE activity, in the presence and absence of test compounds was determined essentially as described by Thompson et al., Adv. Cyclic Nucleotide Res. 10:69-92. To determine the potency and selectivity of compounds as PDE inhibitors, compounds are screened for their effect on cyclic nucleotide hydrolysis at 10 μM. If ≥50% inhibition of PDE activity is observed, an IC50 value (concentration of compound causing 50% reduction in PDE activity) and corresponding 95% confidence intervals are generated. The IC50 values are calculated from concentration-response curves as described by Tallarida and Murray, Manual of Pharmacologic Calculations with Computer Programs, Procedure 8, Graded Dose-response, pp. 14-19, Springer-Verlag, N.Y., 1981.

Row | Structure (SMILES) | IC50 [4] | ED25 [3] [mg/kg] | change in vivo at 10 mg/kg [3] [%] | Percent Inhibition cGMP-PDE I ([4]; 0.01 μM) [%] | Percent Inhibition cGMP-PDE I ([4]; 0.1 μM) [%] | further results
1 | O=[N+]([O-])OCC(CO[N+](=O)[O-])O[N+](=O)[O-] [nitroglycerin, reference compound] |  |  |  |  |  | EC50 ([1]; 1 h, tolerant strips, pre-exposed to 550 μM nitroglycerin for 60 minutes, p <0.01): 1.55 ± 0.637 µM; EC50 ([1]; vehicle treated, control strips): 0.077 ± 0.016 µM; change in MAP in response to nitroglycerin injection ([2]; non-tolerant rats (n=6)): -19 mmHg; change in MAP in response to nitroglycerin injection ([2]; tolerant rats (n=11)): -11 mmHg
2 | CCOc1cnccc1-c1nc2n(C3CCCC3)[nH]c(C(F)(F)F)c-2c(=O)n1 [Example 127c, 1-Cyclopentyl-3-trifluoromethyl-6-(3-ethoxy-4-pyridyl)pyrazolo[3,4-d]pyrimidin-4-one] | 0.0018 µM and 0.0025 µM |  | -14 | 79 | 93 | 
3 | Cc1[nH]n(C2CCCC2)c2nc(-c3ccc4ncccc4c3)nc(=O)c1-2 [Example 14c, 1-Cyclopentyl-3-methyl-6-(6-quinolinyl)-pyrazolo [3,4-d]-pyrimidin-4-one] | 0.78 µM | 7.8 |  |  |  | 
4 | CCc1[nH]n(C2CCCC2)c2nc(-c3ccncc3OC(C)CC)nc(=O)c1-2 (stereo not shown) [Example 132b, 1-Cyclopentyl-3-ethyl-6-(3-sec-butoxy-4-pyridyl)pyrazolo[3,4-d]pyrimidin-4-one] |  |  | -12 | 90 |  | change in vivo at 1 mg/kg [3]: -9%; change in vivo at 3 mg/kg [3]: -8%
5 | Cc1nn(C2CCCC2)c2nc(-c3cccnc3)[nH]c(=O)c12 [Example 98] | 0.56 µM | 4.1 |  |  |  | 

Further lines, with some results ahead:

Row | IC50 [4] | Structure (SMILES) | ED25 [3] [mg/kg] | change in vivo at 10 mg/kg [3] [%] | Percent Inhibition cGMP-PDE I ([4]; 0.01 μM) [%] | Percent Inhibition cGMP-PDE I ([4]; 0.1 μM) [%] | further results
6 | 0.37 µM | Cc1nn(C2CCCC2)c2nc(-c3ccncc3)[nH]c(=O)c12 [Example 83] | 1 |  |  |  | change in MAP at threshold dose of the compound ([2]; 1 mg/kg, i.v., threshold dose): approximately 10 mmHg; change in MAP in response to nitroglycerin injection after pretreatment with the compound ([2]; nitroglycerin tolerant rats (n=12), compound 1 mg/kg i.v., then nitroglycerin 10 μg/kg): -35 mmHg
7 | 0.036 µM | CCc1[nH]n(C2CCCC2)c2nc(-c3ccncc3OC)nc(=O)c1-2 [Example 128c, 1-Cyclopentyl-3-ethyl-6-(3-methoxy-4-pyridyl)pyrazolo[3,4-d]pyrimidin-4-one] | 0.23 | -48 | 54 | 71 | 
8 | 0.0016 µM | CCOc1cnccc1-c1nc2n(C3CCCC3)[nH]c(CC)c-2c(=O)n1 [Example 119d, 1-Cyclopentyl-3-ethyl-6-(3-ethoxy-4-pyridyl)pyrazolo[3,4-d]pyrimidin-4-one] | 4.8 | -36 |  | 90 | change in vivo at 3 mg/kg [3]: -24%
9 | 0.006 µM | COc1ccc(Cc2[nH]n(C(C)(C)C)c3nc(-c4ccncc4)nc(=O)c2-3)cc1OC [Example 4e, 1-tert-Butyl-3-(3,4-dimethoxybenzyl)-6-(4-pyridyl) pyrazolo[3,4-d]pyrimidin-4-one] |  | -2 | 69 |  | 
10 | 0.12 µM | CC(C)(C)n1[nH]c(Cc2ccncc2)c2c(=O)nc(-c3ccncc3)nc1-2 [Example 123d, 1-tert-butyl-3-(4-pyridylmethyl)-6-(4-pyridyl)-pyrazolo[3,4-d]pyrimidin-4-one] |  | -7 |  | 55 | Percent Inhibition cGMP-PDE I ([4]; 1 μM): 90%
11 | 0.097 µM | Cc1[nH]n(C2CCCC2)c2nc(-c3ccnc4ccccc34)nc(=O)c1-2 [Example 13b, 1-Cyclopentyl-3-methyl-6-(4-quinolinyl)-pyrazolo [3,4-d]-pyrimidin-4-one] |  |  |  |  | change in vivo at 1 mg/kg [3]: -17%; change in vivo at 3 mg/kg [3]: -14%
